Measurements from PubChem BioAssay AID2060896 (Molecular Pharmacology Branch, DTP, NCI, 2025).

Test system: 941728-121-R-J1-PDC complex spheroid viability
Test: Anticancer human tumor 941728-121-R-J1-PDC patient-derived lung adenocarcinoma cell line growth inhibition [RAS]
Conditions: for IC50: curve of first compound; for viability, T/C: stronger effect = lower value
In short: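 Agents were tested in combination matrices in half-log decrements from a top concentration at or near clinical Cmax (10 microM if undetermined). Targets were multi-cell spheroids of tumour lines plus HUVEC and MSC stromal cells.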

[1] = second compound 0.00316 µM, first compound 0.0316 µM
[2] = second compound 0.00316 µM, first compound 0.1 µM
[3] = second compound 0.00316 µM, first compound 0.316 µM
[4] = second compound 0.00316 µM, first compound 1 µM
[5] = second compound 0.01 µM, first compound 0.0316 µM
[6] = second compound 0.01 µM, first compound 0.1 µM
[7] = second compound 0.01 µM, first compound 0.316 µM
[8] = second compound 0.01 µM, first compound 1 µM
[9] = second compound 0.0316 µM, first compound 0.0316 µM
[10] = second compound 0.0316 µM, first compound 0.1 µM
[11] = second compound 0.0316 µM, first compound 0.316 µM
[12] = second compound 0.0316 µM, first compound 1 µM
[13] = second compound 0.1 µM, first compound 0.0316 µM
[14] = second compound 0.1 µM, first compound 0.1 µM
[15] = second compound 0.1 µM, first compound 0.316 µM
[16] = second compound 0.1 µM, first compound 1 µM
[17] = second compound 0.316 µM, first compound 0.0316 µM
[18] = second compound 0.316 µM, first compound 0.1 µM
[19] = second compound 0.316 µM, first compound 0.316 µM
[20] = second compound 0.316 µM, first compound 1 µM
[21] = second compound 1 µM, first compound 0.0316 µM
[22] = second compound 1 µM, first compound 0.1 µM
[23] = second compound 1 µM, first compound 0.316 µM
[24] = second compound 1 µM, first compound 1 µM
[25] = second compound 0.00316 µM, first compound 3.16 µM
[26] = second compound 0.00316 µM, first compound 10 µM
[27] = second compound 0.01 µM, first compound 3.16 µM
[28] = second compound 0.01 µM, first compound 10 µM
[29] = second compound 0.0316 µM, first compound 3.16 µM
[30] = second compound 0.0316 µM, first compound 10 µM
[31] = second compound 0.1 µM, first compound 3.16 µM
[32] = second compound 0.1 µM, first compound 10 µM
[33] = second compound 0.316 µM, first compound 3.16 µM
[34] = second compound 0.316 µM, first compound 10 µM
[35] = second compound 1 µM, first compound 3.16 µM
[36] = second compound 1 µM, first compound 10 µM
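Note: spheroids exposed to compounds for 7 days before readout.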
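Throughout, for viability, T/C: 100% = DMSO vehicle control viability.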

What does the source list for `CCN1CCN(Cc2ccc(Nc3ncc(F)c(-c4cc(F)c5nc(C)n(C(C)C)c5c4)n3)nc2)CC1` + C=CC(=O)N1CCN(c2nc(OCC3CCCN3C)nc3c(F)c(-c4nc(N)cc(C)c4C(F)(F)F)c(Cl)cc23)C(C)C1?
IC50 (second compound 0.00316 µM): < 3.16 nM; IC50 (second compound 0.01 µM): < 3.16 nM; IC50 (second compound 0.0316 µM): < 3.16 nM; IC50 (second compound 0.1 µM): < 3.16 nM; IC50 (second compound 0.316 µM): < 3.16 nM; IC50 (second compound 1 µM): < 3.16 nM; viability, T/C (second compound 0.00316 µM, first compound 0.00316 µM): 21.3%; viability, T/C (second compound 0.00316 µM, first compound 0.01 µM): 18.4%; viability, T/C [1]: 18.1%; viability, T/C [2]: 20.8%; viability, T/C [3]: 15.6%; viability, T/C [4]: 15.6%; viability, T/C (second compound 0.01 µM, first compound 0.00316 µM): 20.1%; viability, T/C (second compound 0.01 µM, first compound 0.01 µM): 18.5%; viability, T/C [5]: 17.5%; viability, T/C [6]: 15.9%; viability, T/C [7]: 13.1%; viability, T/C [8]: 12.6%; viability, T/C (second compound 0.0316 µM, first compound 0.00316 µM): 18.4%; viability, T/C (second compound 0.0316 µM, first compound 0.01 µM): 20.1%; viability, T/C [9]: 14.6%; viability, T/C [10]: 13.5%; viability, T/C [11]: 13.8%; viability, T/C [12]: 15.1%; viability, T/C (second compound 0.1 µM, first compound 0.00316 µM): 18.8%; viability, T/C (second compound 0.1 µM, first compound 0.01 µM): 19%; viability, T/C [13]: 18.6%; viability, T/C [14]: 15.8%; viability, T/C [15]: 14.4%; viability, T/C [16]: 13.5%; viability, T/C (second compound 0.316 µM, first compound 0.00316 µM): 18%; viability, T/C (second compound 0.316 µM, first compound 0.01 µM): 17.4%; viability, T/C [17]: 18.5%; viability, T/C [18]: 17.3%; viability, T/C [19]: 13.2%; viability, T/C [20]: 13.9%; viability, T/C (second compound 1 µM, first compound 0.00316 µM): 21.6%; viability, T/C (second compound 1 µM, first compound 0.01 µM): 18.8%; viability, T/C [21]: 20.6%; viability, T/C [22]: 16.5%; viability, T/C [23]: 14.7%; viability, T/C [24]: 13.2%

`Cc1nc(N2CCC3(CC2)COC(C)C3N)c(CO)nc1Sc1ccnc(N)c1Cl` (stereo unspecified) + C=CC(=O)N1CCN(c2nc(OCC3CCCN3C)nc3c(F)c(-c4nc(N)cc(C)c4C(F)(F)F)c(Cl)cc23)C(C)C1 was tested. Which IC50 (second compound 0.00316 µM) did it give?
The IC50 was under 31.6 nM.

And the IC50 (second compound 0.01 µM)?
The IC50 was under 31.6 nM.

And the IC50 (second compound 0.0316 µM)?
The IC50 was under 31.6 nM.

And the IC50 (second compound 0.1 µM)?
The IC50 was under 31.6 nM.

What about the IC50 (second compound 0.316 µM) of the same molecule?
Its IC50 is under 31.6 nM.

What about the IC50 (second compound 1 µM) of the same molecule?
Its IC50 is under 31.6 nM.

What about the viability, T/C [1] of the same molecule?
Its viability, T/C is 19%.

And the viability, T/C [2]?
The viability, T/C was 17.5%.

What about the viability, T/C [3] of the same molecule?
The viability, T/C was 16.5%.

What about the viability, T/C [4] of the same molecule?
Its viability, T/C is 17.4%.

And the viability, T/C [25]?
Its viability, T/C is 16.4%.

What about the viability, T/C [26] of the same molecule?
The viability, T/C was 17.3%.

What about the viability, T/C [5] of the same molecule?
Its viability, T/C is 17.8%.

What about the viability, T/C [6] of the same molecule?
Its viability, T/C is 17.4%.

And the viability, T/C [7]?
The viability, T/C was 18.4%.

What about the viability, T/C [8] of the same molecule?
The viability, T/C was 20.9%.

And the viability, T/C [27]?
The viability, T/C was 16.2%.

What about the viability, T/C [28] of the same molecule?
The viability, T/C was 16.3%.

What about the viability, T/C [9] of the same molecule?
The viability, T/C was 18.5%.

What about the viability, T/C [10] of the same molecule?
The viability, T/C was 18.3%.

And the viability, T/C [11]?
Its viability, T/C is 13.9%.

What about the viability, T/C [12] of the same molecule?
The viability, T/C was 15.6%.

And the viability, T/C [29]?
Its viability, T/C is 15.9%.

What about the viability, T/C [30] of the same molecule?
Its viability, T/C is 16.9%.

And the viability, T/C [13]?
The viability, T/C was 19%.

And the viability, T/C [14]?
The viability, T/C was 16.7%.

And the viability, T/C [15]?
Its viability, T/C is 15.5%.

What about the viability, T/C [16] of the same molecule?
The viability, T/C was 17.6%.

And the viability, T/C [31]?
The viability, T/C was 17.8%.

What about the viability, T/C [32] of the same molecule?
The viability, T/C was 14.9%.

What about the viability, T/C [17] of the same molecule?
Its viability, T/C is 19.3%.

And the viability, T/C [18]?
The viability, T/C was 28.2%.

And the viability, T/C [19]?
Its viability, T/C is 18.2%.

What about the viability, T/C [20] of the same molecule?
Its viability, T/C is 16.4%.

And the viability, T/C [33]?
The viability, T/C was 15.9%.

And the viability, T/C [34]?
Its viability, T/C is 15.9%.

What about the viability, T/C [21] of the same molecule?
Its viability, T/C is 20.2%.

And the viability, T/C [22]?
The viability, T/C was 18.2%.

What about the viability, T/C [23] of the same molecule?
Its viability, T/C is 15.9%.

What about the viability, T/C [24] of the same molecule?
The viability, T/C was 16.1%.

What about the viability, T/C [35] of the same molecule?
The viability, T/C was 19.1%.

And the viability, T/C [36]?
The viability, T/C was 18.1%.

Which results are given for `NC1c2ccccc2OC12CCN(c1cnc3c(N4CCCc5ncccc54)n[nH]c3n1)CC2` (stereo unspecified) + C=CC(=O)N1CCN(c2nc(OCC3CCCN3C)nc3c(F)c(-c4nc(N)cc(C)c4C(F)(F)F)c(Cl)cc23)C(C)C1?
IC50 (second compound 0.00316 µM): < 31.6 nM; IC50 (second compound 0.01 µM): < 31.6 nM; IC50 (second compound 0.0316 µM): < 31.6 nM; IC50 (second compound 0.1 µM): < 31.6 nM; IC50 (second compound 0.316 µM): < 31.6 nM; IC50 (second compound 1 µM): < 31.6 nM; viability, T/C [1]: 15.4%; viability, T/C [2]: 15.1%; viability, T/C [3]: 15.6%; viability, T/C [4]: 17%; viability, T/C [25]: 16.8%; viability, T/C [26]: 17.1%; viability, T/C [5]: 18.8%; viability, T/C [6]: 15.7%; viability, T/C [7]: 16.2%; viability, T/C [8]: 15.5%; viability, T/C [27]: 17.1%; viability, T/C [28]: 17.5%; viability, T/C [9]: 16.4%; viability, T/C [10]: 15.7%; viability, T/C [11]: 15.8%; viability, T/C [12]: 16.8%; viability, T/C [29]: 15.9%; viability, T/C [30]: 16.3%; viability, T/C [13]: 15%; viability, T/C [14]: 15.3%; viability, T/C [15]: 16%; viability, T/C [16]: 17.6%; viability, T/C [31]: 17%; viability, T/C [32]: 17%; viability, T/C [17]: 16.3%; viability, T/C [18]: 16.8%; viability, T/C [19]: 17%; viability, T/C [20]: 16.9%; viability, T/C [33]: 15.7%; viability, T/C [34]: 16%; viability, T/C [21]: 16.1%; viability, T/C [22]: 15.1%; viability, T/C [23]: 16%; viability, T/C [24]: 16.6%; viability, T/C [35]: 17.6%; viability, T/C [36]: 17.2%
